Measurements taken from ChEMBL document CHEMBL1201862, “PubChem BioAssay data set” (2004).
The source made the active and inactive calls.

Assays:
[1] = C. albicans growth with fluconazole, confirmation, fluorescence, retest (AID 2467); format: functional, cell-based
[2] = system: Streptococcus sp. 'group A'; assay: growth inhibition of control SK(-) GAS strain, dose response, counter-screen for streptokinase expression inhibitor project, luminescence, kanamycin, BacTiterGlo, confirmation (AID 1900); format: functional, organism-based
Streptococcus = assay: Group A Streptococcus viability loss, dose response, counter-screen for streptokinase expression inhibitor project, luminescence, BacTiterGlo (AID 1915); format: functional, organism-based;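 further: potency for reduction of bacterial viability or growth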
[3] = ZM109 Env clade C HIV-1 fusion inhibitors, dose response, HeLa effector, CEM target cells, luciferase, cherry-pick (AID 652058); format: functional, cell-based
[4] = molecular target: T1, Probable nicotinate-nucleotide adenylyltransferase (Staphylococcus aureus (strain N315), UniProt P65502); format: functional, Staphylococcus aureus subsp. aureus N315; conditions: read-out: IC50_Mean;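 on IC50 Mean: confirmatory dose-response retesting of NadD inhibitor hits first found in an ultra-high-throughput screen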
T1 sequence (P65502 whole entry, the tested form may be a part): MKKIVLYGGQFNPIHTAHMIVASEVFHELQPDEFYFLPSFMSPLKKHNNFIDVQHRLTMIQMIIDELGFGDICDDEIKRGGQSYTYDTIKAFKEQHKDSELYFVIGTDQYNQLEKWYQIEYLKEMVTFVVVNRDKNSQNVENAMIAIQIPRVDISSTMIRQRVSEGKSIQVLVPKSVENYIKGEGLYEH

[5] = inhibitors of clade B AD8 Env fusion, dose response, cell-based, cherry-pick (AID 652062); format: functional;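 further: luciferase signal from cell-cell fusion driven by HIV-1 clade B AD8 Env; potency is for inhibitors of fusion seen as a drop in luminescence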
[6] = HIV Env cell-cell fusion inhibitors, dose response, HIV entry, plate reader, dry powder (AID 687023); format: functional, cell-based
[7] = inhibitors of HIV Env-driven cell fusion, dose response, cherry-pick (AID 652057); format: functional, cell-based
Hexokinase HKDC1 = molecular target: T2, Hexokinase HKDC1 (Homo sapiens, UniProt Q2TB90); assay: HKDC1 hexokinase activators, dose response, biochemical, W721R variant (AID 504730); format: functional
T2 sequence (Q2TB90 whole entry): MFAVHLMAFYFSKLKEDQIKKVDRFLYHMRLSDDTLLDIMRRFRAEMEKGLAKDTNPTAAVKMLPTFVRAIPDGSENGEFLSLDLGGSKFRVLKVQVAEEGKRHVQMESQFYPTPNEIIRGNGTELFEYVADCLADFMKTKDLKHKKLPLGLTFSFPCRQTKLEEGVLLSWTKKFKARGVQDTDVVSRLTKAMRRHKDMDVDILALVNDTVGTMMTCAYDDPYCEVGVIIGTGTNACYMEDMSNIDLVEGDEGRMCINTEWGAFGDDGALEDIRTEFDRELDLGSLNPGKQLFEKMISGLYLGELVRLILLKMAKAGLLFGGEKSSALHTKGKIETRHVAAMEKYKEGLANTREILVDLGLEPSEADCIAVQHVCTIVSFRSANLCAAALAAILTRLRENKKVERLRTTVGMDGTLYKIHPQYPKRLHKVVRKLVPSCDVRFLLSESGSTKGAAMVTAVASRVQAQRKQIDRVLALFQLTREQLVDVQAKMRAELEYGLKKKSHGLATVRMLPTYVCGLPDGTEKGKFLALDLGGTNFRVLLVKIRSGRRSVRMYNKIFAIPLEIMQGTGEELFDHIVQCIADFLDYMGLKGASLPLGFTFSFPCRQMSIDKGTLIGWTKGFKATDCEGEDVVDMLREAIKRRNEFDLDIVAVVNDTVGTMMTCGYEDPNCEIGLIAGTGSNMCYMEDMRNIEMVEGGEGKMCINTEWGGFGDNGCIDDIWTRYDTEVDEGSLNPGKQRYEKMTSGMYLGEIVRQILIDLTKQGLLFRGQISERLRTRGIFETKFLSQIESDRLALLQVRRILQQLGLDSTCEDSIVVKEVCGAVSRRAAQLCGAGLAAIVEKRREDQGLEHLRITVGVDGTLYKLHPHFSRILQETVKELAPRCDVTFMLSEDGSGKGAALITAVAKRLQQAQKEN

Hexokinase-1 = Hexokinase-1 (Homo sapiens, UniProt P19367); assay: hexokinase 1 activators, dose response, selectivity assay for HKDC1 activator project, biochemical (AID 504762); format: functional
Chain of Hexokinase-1 (P19367 whole entry): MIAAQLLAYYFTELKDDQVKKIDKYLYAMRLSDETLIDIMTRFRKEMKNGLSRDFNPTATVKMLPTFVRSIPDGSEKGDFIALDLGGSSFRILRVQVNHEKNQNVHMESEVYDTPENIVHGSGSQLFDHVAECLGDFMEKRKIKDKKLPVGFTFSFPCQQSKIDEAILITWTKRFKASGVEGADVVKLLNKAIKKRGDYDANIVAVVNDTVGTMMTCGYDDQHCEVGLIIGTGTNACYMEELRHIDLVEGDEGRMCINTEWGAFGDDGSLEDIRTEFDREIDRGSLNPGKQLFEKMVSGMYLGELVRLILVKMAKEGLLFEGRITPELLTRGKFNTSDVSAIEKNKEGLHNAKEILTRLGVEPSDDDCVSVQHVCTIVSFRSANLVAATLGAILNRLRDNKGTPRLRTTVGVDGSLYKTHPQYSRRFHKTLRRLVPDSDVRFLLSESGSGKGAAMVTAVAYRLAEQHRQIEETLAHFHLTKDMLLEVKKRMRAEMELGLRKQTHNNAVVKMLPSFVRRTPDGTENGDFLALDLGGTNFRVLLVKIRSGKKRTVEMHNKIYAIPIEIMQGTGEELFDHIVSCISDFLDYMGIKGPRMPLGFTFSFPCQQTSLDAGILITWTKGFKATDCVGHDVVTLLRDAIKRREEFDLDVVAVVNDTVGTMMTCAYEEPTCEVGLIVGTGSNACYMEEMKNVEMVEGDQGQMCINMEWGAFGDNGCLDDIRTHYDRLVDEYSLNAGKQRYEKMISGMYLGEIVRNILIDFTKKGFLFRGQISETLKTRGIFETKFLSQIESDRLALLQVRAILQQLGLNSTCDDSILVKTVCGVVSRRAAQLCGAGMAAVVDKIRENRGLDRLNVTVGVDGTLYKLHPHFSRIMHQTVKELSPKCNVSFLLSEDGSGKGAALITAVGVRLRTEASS

[8] = molecular target: T1, Probable nicotinate-nucleotide adenylyltransferase; format: functional, Staphylococcus aureus subsp. aureus N315
[9] = CEM21 cell cytotoxicity, dose response, cytotoxicity control, plate reader, dry powder (AID 687026); format: functional, cell-based
[10] = NIH-3T3 fibroblast cytotoxicity, dose response, cytotoxicity control, cell-based, fluorescence, Alamar Blue, secondary assay (AID 2327); format: functional;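 further: NIH-3T3 mouse fibroblasts cultured with fluconazole at 8 µg/mL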
[11] = molecular target: T3, Replicative DNA helicase DnaB (Mycobacterium tuberculosis, UniProt P9WMR3); assay: DnaB intein splicing inhibitors, dose response, biochemical, cell-free fluorescence (AID 449749); format: functional
T3 sequence (P9WMR3 whole entry): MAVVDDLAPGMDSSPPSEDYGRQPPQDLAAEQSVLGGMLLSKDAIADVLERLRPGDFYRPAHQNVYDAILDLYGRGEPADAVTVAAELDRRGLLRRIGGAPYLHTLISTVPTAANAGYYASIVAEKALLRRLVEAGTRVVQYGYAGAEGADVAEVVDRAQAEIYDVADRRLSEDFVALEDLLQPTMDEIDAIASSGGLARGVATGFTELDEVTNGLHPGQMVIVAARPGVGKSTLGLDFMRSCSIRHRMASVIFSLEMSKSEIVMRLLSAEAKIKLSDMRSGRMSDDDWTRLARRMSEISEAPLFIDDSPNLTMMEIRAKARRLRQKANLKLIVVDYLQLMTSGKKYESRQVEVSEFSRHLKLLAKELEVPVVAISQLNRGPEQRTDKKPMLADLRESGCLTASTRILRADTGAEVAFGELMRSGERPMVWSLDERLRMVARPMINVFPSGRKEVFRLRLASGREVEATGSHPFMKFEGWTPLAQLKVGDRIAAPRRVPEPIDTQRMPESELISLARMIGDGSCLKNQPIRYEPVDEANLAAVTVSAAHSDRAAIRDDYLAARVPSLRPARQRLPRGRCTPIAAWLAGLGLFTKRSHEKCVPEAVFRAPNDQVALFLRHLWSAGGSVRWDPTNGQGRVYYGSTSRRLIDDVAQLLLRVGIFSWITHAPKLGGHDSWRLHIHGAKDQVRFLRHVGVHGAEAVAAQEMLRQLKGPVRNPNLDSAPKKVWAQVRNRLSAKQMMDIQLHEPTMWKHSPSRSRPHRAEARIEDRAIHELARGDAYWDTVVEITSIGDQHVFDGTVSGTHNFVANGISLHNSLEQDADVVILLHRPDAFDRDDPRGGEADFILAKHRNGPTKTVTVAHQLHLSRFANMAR

Protein RecA = molecular target: T4, Protein RecA (Mycobacterium tuberculosis, UniProt P9WHJ3); assay: Fluorescence Cell-Free Homogeneous Dose Retest to Identify Inhibitors of RecA-Intein Splicing Activity. [Related pubchem assays (depositor defined):AID2097, AID2223, AID489010, AID492950]; format: functional
T4 sequence (P9WHJ3 whole entry): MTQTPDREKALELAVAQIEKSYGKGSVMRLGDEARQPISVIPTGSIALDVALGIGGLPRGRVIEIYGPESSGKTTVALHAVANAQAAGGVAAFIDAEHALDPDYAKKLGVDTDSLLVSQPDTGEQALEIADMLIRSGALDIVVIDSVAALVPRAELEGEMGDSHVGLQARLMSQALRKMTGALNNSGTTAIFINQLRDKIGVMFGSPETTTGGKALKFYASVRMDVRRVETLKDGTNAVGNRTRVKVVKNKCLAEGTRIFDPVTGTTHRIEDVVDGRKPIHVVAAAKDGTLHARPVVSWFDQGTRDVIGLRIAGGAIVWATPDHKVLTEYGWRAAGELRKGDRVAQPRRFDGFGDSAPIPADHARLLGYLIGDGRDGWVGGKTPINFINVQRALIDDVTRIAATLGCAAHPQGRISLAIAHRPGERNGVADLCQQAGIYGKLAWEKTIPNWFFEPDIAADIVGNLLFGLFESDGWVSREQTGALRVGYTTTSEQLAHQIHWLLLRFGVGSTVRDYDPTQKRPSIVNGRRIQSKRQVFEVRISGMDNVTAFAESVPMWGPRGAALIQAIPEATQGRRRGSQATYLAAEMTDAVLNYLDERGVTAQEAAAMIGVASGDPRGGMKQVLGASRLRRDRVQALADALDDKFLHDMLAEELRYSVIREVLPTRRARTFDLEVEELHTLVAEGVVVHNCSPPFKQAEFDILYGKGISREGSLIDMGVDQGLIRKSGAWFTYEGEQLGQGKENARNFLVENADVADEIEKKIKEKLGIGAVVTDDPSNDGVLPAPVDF

[12] = molecular target: T5, Heat shock factor protein 1 (Mus musculus, UniProt P38532); assay: HSF1 potentiators in luciferase reporter cells, confirmation, cell-based, NIH3T3, luminescence, dose retest (AID 435004); format: functional;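 further: stress induced by proteasome inhibitor MG132 added 30 min after compound; luciferase reporter driven by HSF1 response element in NIH3T3 cells; actives raise luminescence as potentiators of the MG132 stress response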
T5 sequence (P38532 whole entry): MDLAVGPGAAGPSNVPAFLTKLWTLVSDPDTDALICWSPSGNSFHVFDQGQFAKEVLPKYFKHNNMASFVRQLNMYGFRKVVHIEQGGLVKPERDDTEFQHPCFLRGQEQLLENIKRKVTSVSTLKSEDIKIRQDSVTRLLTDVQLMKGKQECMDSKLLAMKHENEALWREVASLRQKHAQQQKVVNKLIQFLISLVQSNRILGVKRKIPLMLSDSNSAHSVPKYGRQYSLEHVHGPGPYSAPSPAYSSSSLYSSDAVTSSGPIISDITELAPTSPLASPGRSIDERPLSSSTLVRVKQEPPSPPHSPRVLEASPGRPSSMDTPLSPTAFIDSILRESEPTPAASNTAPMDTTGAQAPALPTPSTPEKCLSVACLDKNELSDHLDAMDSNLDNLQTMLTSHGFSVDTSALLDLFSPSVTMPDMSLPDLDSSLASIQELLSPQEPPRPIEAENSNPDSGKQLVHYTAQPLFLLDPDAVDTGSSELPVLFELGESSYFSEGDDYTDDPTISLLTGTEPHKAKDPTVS

[13] = Intein inhibitors as potential Tuberculosis drugs, a cytotoxicity screen. [Related pubchem assays (depositor defined):AID2221, AID2223, AID434968, AID435010, AID449749, AID449750, AID489010]; format: functional
[14] = molecular target: T6, Histone-lysine N-methyltransferase NSD2 (Homo sapiens, UniProt O96028); format: biochemical
T6 sequence (O96028 whole entry): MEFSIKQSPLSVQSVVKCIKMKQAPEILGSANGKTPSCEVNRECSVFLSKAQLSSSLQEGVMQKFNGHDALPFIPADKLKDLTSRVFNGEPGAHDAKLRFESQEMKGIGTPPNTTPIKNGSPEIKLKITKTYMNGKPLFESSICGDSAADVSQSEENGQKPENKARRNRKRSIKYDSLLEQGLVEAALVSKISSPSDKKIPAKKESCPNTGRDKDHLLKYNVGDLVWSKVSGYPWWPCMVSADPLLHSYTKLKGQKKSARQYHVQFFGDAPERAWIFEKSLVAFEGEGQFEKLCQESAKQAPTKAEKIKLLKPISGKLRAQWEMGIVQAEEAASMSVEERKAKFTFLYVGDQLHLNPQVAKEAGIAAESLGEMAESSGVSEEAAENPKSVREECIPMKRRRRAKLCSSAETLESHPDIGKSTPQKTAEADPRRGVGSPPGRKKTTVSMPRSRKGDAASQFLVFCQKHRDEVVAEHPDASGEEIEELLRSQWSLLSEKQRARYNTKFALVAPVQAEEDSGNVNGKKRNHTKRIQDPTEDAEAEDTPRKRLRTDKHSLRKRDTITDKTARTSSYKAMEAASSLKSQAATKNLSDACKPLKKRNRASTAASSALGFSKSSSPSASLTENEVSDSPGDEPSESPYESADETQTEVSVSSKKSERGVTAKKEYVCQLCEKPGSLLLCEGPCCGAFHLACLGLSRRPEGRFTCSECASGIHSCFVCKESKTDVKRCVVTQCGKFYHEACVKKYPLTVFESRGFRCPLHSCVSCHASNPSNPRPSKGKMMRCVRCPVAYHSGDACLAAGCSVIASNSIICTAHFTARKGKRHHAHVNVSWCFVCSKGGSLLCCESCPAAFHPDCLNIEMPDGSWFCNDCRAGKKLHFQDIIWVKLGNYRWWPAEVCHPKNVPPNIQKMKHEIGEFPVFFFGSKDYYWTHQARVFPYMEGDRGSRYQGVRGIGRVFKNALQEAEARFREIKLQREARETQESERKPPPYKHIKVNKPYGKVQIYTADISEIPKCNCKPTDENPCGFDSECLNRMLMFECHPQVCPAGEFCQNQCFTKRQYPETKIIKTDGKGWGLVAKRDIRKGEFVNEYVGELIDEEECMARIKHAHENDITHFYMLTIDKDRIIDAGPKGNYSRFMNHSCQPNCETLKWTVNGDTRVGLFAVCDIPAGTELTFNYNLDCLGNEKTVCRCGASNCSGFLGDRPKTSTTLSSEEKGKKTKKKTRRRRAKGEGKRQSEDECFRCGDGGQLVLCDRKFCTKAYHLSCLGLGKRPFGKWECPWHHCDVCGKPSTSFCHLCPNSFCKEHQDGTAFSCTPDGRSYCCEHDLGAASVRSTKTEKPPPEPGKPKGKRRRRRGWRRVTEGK

INS1 = assay: beta cell apoptosis inhibitors, cytokine rescue, dose response, luminescence, retest (AID 449756); format: functional, cell-based; conditions: Rattus norvegicus;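 further: cell death triggered by IL-1 beta plus TNF-alpha plus IFN-gamma mixture; protective hits raise ATP signal compared with cytokine alone wells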
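Wherever CC50 is given: cells exposed to compound for 72 hours before luminescence readout.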

Compound | EC50 [1] | EC50 [2] | EC50 (Streptococcus) | AC50 [3] | IC50 [4] | AC50 [5] | AC50 [6] | AC50 [7] | EC50 (Hexokinase HKDC1) | EC50 (Hexokinase-1) | IC50 [8] | AC50 [9] | EC50 [10] | AC50 [11] | EC50 (Protein RecA) | EC50 [12] | CC50 [13] | AC50 [14] | AC50 (INS1)
COc1ccc(-c2cc(C(=O)NNC(=S)NC(=O)c3c(-c4ccccc4)noc3C)[nH]n2)cc1 | > 38 µM (not active) | 263 nM (active) | 4.58 µM (active) | 2.61 µM (active) | 26.1 µM (active) | 4.51 µM (active) | 2.1 µM (active) | 12 µM (active) | 3.62 µM (active) | > 80 µM (inactive) | 6.51 µM (active) | > 70 µM (inactive) | 53.9 µM (active) | – | – | – | – | – | –
CN(C1=C(NC(=O)c2ccccc2)C(=O)c2ccccc2C1=O)C1CCS(=O)(=O)C1 (centres undefined) | – | – | – | – | – | – | – | – | – | – | – | – | – | 1.7 µM (active) | 108 nM (active) | 30.9 µM (active) | 19.2 µM (active) | 4.69 µM (active) | 3 µM (active)
